Test results: ChEMBL document CHEMBL1201862, “PubChem BioAssay data set” (2004)
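Five concentrations, 48 hours, 96-well plates. GI50 = concentration required for 50% inhibition of growth.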 The source made the active and inactive calls. Rule as the data show it: active = GI50 up to about 1.1 µM and inactive = higher.

Assays:
Experiment in all cases: DTP human tumour cell line panel, 48 h
[1] = test system: HOP-92
[2] = test system: HT-29
[3] = test system: T47D
[4] = test system: A498
[5] = test system: A549
[6] = test system: HCT-15
[7] = test system: OVCAR-8
[8] = test system: IGROV-1
[9] = test system: 786-0
[10] = test system: M14
[11] = test system: CCRF-CEM
[12] = test system: NCI-H23
[13] = test system: MDA-MB-435
[14] = test system: SF-295
[15] = test system: UACC-257
[16] = test system: NCI-H460
[17] = test system: UO-31
[18] = test system: SNB-75
[19] = test system: UACC-62
[20] = test system: DU-145
[21] = test system: KM12
[22] = test system: SNB-19
[23] = test system: Hs-578T
[24] = test system: Malme-3M
[25] = test system: SK-MEL-5
[26] = test system: SK-MEL-2
[27] = test system: OVCAR-4
[28] = test system: COLO 205
[29] = test system: NCI-H522
[30] = test system: OVCAR-3
[31] = test system: SK-OV-3
[32] = test system: EKVX
[33] = test system: MDA-MB-231
[34] = test system: MCF7
[35] = test system: SN12C
[36] = test system: BT-549
[37] = test system: SK-MEL-28
[38] = test system: CAKI-1
[39] = test system: K562
[40] = test system: ACHN
[41] = test system: HL-60
[42] = test system: NCI-H226
[43] = test system: RXF 393
[44] = test system: SF-539
[45] = test system: OVCAR-5
[46] = test system: PC-3
[47] = test system: NCI/ADR-RES
[48] = test system: SR
[49] = test system: SW-620
[50] = test system: U-251
[51] = test system: MDA-N
[52] = test system: MOLT-4
[53] = test system: HCT-116
[54] = test system: RPMI-8226
[55] = test system: SF-268
[56] = test system: HOP-62

CCCCCCCCCCCCCCCC(=O)OCC(COP(=O)(O)OCCNC(=O)CCSSc1ccccn1)OC(=O)CCCCCCCCCCCCCCC (stereo unspecified)
GI50 [1]: > 100 µM (inactive) | GI50 [2]: > 100 µM (inactive) | GI50 [3]: > 100 µM (inactive) | GI50 [4]: > 100 µM (inactive) | GI50 [5]: > 100 µM (inactive) | GI50 [6]: > 100 µM | GI50 [7]: > 100 µM (inactive) | GI50 [8]: > 100 µM (inactive) | GI50 [9]: > 100 µM (inactive) | GI50 [10]: > 100 µM (inactive) | GI50 [11]: > 100 µM (inactive) | GI50 [12]: > 100 µM (inactive) | GI50 [13]: > 100 µM (inactive) | GI50 [14]: > 100 µM (inactive) | GI50 [15]: > 100 µM (inactive) | GI50 [16]: > 100 µM (inactive) | GI50 [17]: > 100 µM (inactive) | GI50 [18]: > 100 µM (inactive) | GI50 [19]: > 100 µM (inactive) | GI50 [20]: > 100 µM (inactive) | GI50 [21]: > 100 µM (inactive) | GI50 [22]: > 100 µM (inactive) | GI50 [23]: > 100 µM (inactive) | GI50 [24]: > 100 µM (inactive) | GI50 [25]: > 100 µM (inactive) | GI50 [26]: > 100 µM (inactive) | GI50 [27]: > 100 µM (inactive) | GI50 [28]: > 100 µM (inactive) | GI50 [29]: > 100 µM (inactive) | GI50 [30]: > 100 µM (inactive) | GI50 [31]: > 100 µM (inactive) | GI50 [32]: > 100 µM (inactive) | GI50 [33]: > 100 µM (inactive) | GI50 [34]: > 100 µM (inactive) | GI50 [35]: > 100 µM (inactive) | GI50 [36]: > 100 µM (inactive) | GI50 [37]: > 100 µM (inactive) | GI50 [38]: > 100 µM (inactive) | GI50 [39]: > 100 µM (inactive) | GI50 [40]: > 100 µM (inactive) | GI50 [41]: > 100 µM (inactive) | GI50 [42]: > 100 µM (inactive) | GI50 [43]: > 100 µM (inactive) | GI50 [44]: > 100 µM (inactive) | GI50 [45]: > 100 µM (inactive) | GI50 [46]: > 100 µM (inactive) | GI50 [47]: > 100 µM (inactive) | GI50 [48]: > 100 µM (inactive) | GI50 [49]: > 100 µM (inactive) | GI50 [50]: > 100 µM (inactive) | GI50 [51]: > 100 µM (inactive) | GI50 [52]: > 100 µM (inactive) | GI50 [53]: > 100 µM (inactive) | GI50 [54]: > 100 µM (inactive) | GI50 [55]: > 100 µM (inactive) | GI50 [56]: > 100 µM (inactive)
